PubChem BioAssay (NCI)
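Interpolation was linear, between the two tested concentrations surrounding the appropriate level; five concentrations were tested over 48 hours in 96-well plates. GI50: concentration for 50% inhibition of growth. TGI: concentration producing complete growth inhibition.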

Assays:
Assay in all cases: NCI-60 cell line screen, 48 h
786-0 renal = test system: 786-0 renal
A498 renal = test system: A498 renal
A549 NSCLC = test system: A549 NSCLC
ACHN renal = test system: ACHN renal
BT-549 breast = test system: BT-549 breast
CAKI-1 renal = test system: CAKI-1 renal
CCRF-CEM leukemia = test system: CCRF-CEM leukemia
COLO 205 colon = test system: COLO 205 colon
DU-145 prostate = test system: DU-145 prostate
EKVX NSCLC = test system: EKVX NSCLC
HCC-2998 colon = test system: HCC-2998 colon
HCT-116 colon = test system: HCT-116 colon
HCT-15 colon = test system: HCT-15 colon
HL-60(TB) leukemia = test system: HL-60(TB) leukemia
HOP-62 NSCLC = test system: HOP-62 NSCLC
HS 578T breast = test system: HS 578T breast
HT29 colon = test system: HT29 colon
IGROV1 ovarian = test system: IGROV1 ovarian
K-562 leukemia = test system: K-562 leukemia
KM12 colon = test system: KM12 colon
M14 melanoma = test system: M14 melanoma
MALME-3M melanoma = test system: MALME-3M melanoma
MDA-MB-435 = test system: MDA-MB-435
MOLT-4 leukemia = test system: MOLT-4 leukemia
NCI-H226 lung = test system: NCI-H226 lung
NCI-H23 lung = test system: NCI-H23 lung
NCI-H460 lung = test system: NCI-H460 lung
NCI-H522 lung = test system: NCI-H522 lung
NCI/ADR-RES ovarian = test system: NCI/ADR-RES ovarian
OVCAR-3 ovarian = test system: OVCAR-3 ovarian
OVCAR-4 ovarian = test system: OVCAR-4 ovarian
OVCAR-5 ovarian = test system: OVCAR-5 ovarian
OVCAR-8 ovarian = test system: OVCAR-8 ovarian
PC-3 prostate = test system: PC-3 prostate
RPMI-8226 leukemia = test system: RPMI-8226 leukemia
RXF 393 renal = test system: RXF 393 renal
SF-268 CNS = test system: SF-268 CNS
SF-295 CNS = test system: SF-295 CNS
SF-539 CNS = test system: SF-539 CNS
SK-MEL-2 melanoma = test system: SK-MEL-2 melanoma
SK-MEL-28 melanoma = test system: SK-MEL-28 melanoma
SK-MEL-5 melanoma = test system: SK-MEL-5 melanoma
SK-OV-3 ovarian = test system: SK-OV-3 ovarian
SN12C renal = test system: SN12C renal
SNB-19 CNS = test system: SNB-19 CNS
SNB-75 CNS = test system: SNB-75 CNS
SR leukemia = test system: SR leukemia
T-47D breast = test system: T-47D breast
TK-10 renal = test system: TK-10 renal
U251 CNS = test system: U251 CNS
UACC-257 melanoma = test system: UACC-257 melanoma
UACC-62 melanoma = test system: UACC-62 melanoma
UO-31 renal = test system: UO-31 renal

Cc1ccc2c(n1)C(=O)C(Cl)=C(Nc1ccc(C(C)C)cc1)C2=O
GI50 (786-0 renal): 2.08 µM
TGI (786-0 renal): 4.5 µM
GI50 (A498 renal): 12.5 µM
TGI (A498 renal): 25.2 µM
GI50 (A549 NSCLC): 3.26 µM
TGI (A549 NSCLC): 12.4 µM
GI50 (ACHN renal): 1.66 µM
TGI (ACHN renal): 3.09 µM
GI50 (BT-549 breast): 1.51 µM
TGI (BT-549 breast): 2.9 µM
GI50 (CAKI-1 renal): 1.53 µM
TGI (CAKI-1 renal): 3.15 µM
GI50 (CCRF-CEM leukemia): 1.9 µM
TGI (CCRF-CEM leukemia): 5.78 µM
GI50 (COLO 205 colon): 1.89 µM
TGI (COLO 205 colon): 3.97 µM
GI50 (DU-145 prostate): 1.73 µM
TGI (DU-145 prostate): 3.24 µM
GI50 (EKVX NSCLC): 1.5 µM
TGI (EKVX NSCLC): 4.18 µM
GI50 (HCC-2998 colon): 1.99 µM
TGI (HCC-2998 colon): 3.65 µM
GI50 (HCT-116 colon): 1.52 µM
TGI (HCT-116 colon): 3.41 µM
GI50 (HCT-15 colon): 1.39 µM
TGI (HCT-15 colon): 3.14 µM
GI50 (HL-60(TB) leukemia): 1.44 µM
TGI (HL-60(TB) leukemia): 3.5 µM
GI50 (HOP-62 NSCLC): 5.34 µM
TGI (HOP-62 NSCLC): 20.1 µM
GI50 (HS 578T breast): 2.07 µM
TGI (HS 578T breast): 5.96 µM
GI50 (HT29 colon): 2.57 µM
TGI (HT29 colon): 6.44 µM
GI50 (IGROV1 ovarian): 1.29 µM
TGI (IGROV1 ovarian): 2.96 µM
GI50 (K-562 leukemia): 0.351 µM
TGI (K-562 leukemia): 1.68 µM
GI50 (KM12 colon): 3.25 µM
TGI (KM12 colon): 14 µM
GI50 (M14 melanoma): 1.7 µM
TGI (M14 melanoma): 3.25 µM
GI50 (MALME-3M melanoma): 1.65 µM
TGI (MALME-3M melanoma): 3.38 µM
GI50 (MDA-MB-435): 1.93 µM
TGI (MDA-MB-435): 3.7 µM
GI50 (MOLT-4 leukemia): 2.16 µM
TGI (MOLT-4 leukemia): 6.36 µM
GI50 (NCI-H226 lung): 1.68 µM
TGI (NCI-H226 lung): 4.35 µM
GI50 (NCI-H23 lung): 1.82 µM
TGI (NCI-H23 lung): 5.05 µM
GI50 (NCI-H460 lung): 3.03 µM
TGI (NCI-H460 lung): 13.9 µM
GI50 (NCI-H522 lung): 2.02 µM
TGI (NCI-H522 lung): 4.58 µM
GI50 (NCI/ADR-RES ovarian): 2.53 µM
TGI (NCI/ADR-RES ovarian): 9.2 µM
GI50 (OVCAR-3 ovarian): 1.4 µM
TGI (OVCAR-3 ovarian): 2.77 µM
GI50 (OVCAR-4 ovarian): 1.57 µM
TGI (OVCAR-4 ovarian): 3.15 µM
GI50 (OVCAR-5 ovarian): 1.74 µM
TGI (OVCAR-5 ovarian): 3.53 µM
GI50 (OVCAR-8 ovarian): 2.59 µM
TGI (OVCAR-8 ovarian): 9.48 µM
GI50 (PC-3 prostate): 1.28 µM
TGI (PC-3 prostate): 3.16 µM
GI50 (RPMI-8226 leukemia): 1.52 µM
TGI (RPMI-8226 leukemia): 4.53 µM
GI50 (RXF 393 renal): 1.49 µM
TGI (RXF 393 renal): 2.85 µM
GI50 (SF-268 CNS): 1.76 µM
TGI (SF-268 CNS): 3.86 µM
GI50 (SF-295 CNS): 3.63 µM
TGI (SF-295 CNS): 13 µM
GI50 (SF-539 CNS): 1.62 µM
TGI (SF-539 CNS): 3.07 µM
GI50 (SK-MEL-2 melanoma): 1.81 µM
TGI (SK-MEL-2 melanoma): 3.54 µM
GI50 (SK-MEL-28 melanoma): 1.83 µM
TGI (SK-MEL-28 melanoma): 3.33 µM
GI50 (SK-MEL-5 melanoma): 1.59 µM
TGI (SK-MEL-5 melanoma): 3 µM
GI50 (SK-OV-3 ovarian): 10.4 µM
TGI (SK-OV-3 ovarian): 22.3 µM
GI50 (SN12C renal): 2.03 µM
TGI (SN12C renal): 5.38 µM
GI50 (SNB-19 CNS): 1.9 µM
TGI (SNB-19 CNS): 4.57 µM
GI50 (SNB-75 CNS): 1.67 µM
TGI (SNB-75 CNS): 5.17 µM
GI50 (SR leukemia): 0.643 µM
TGI (SR leukemia): 3.48 µM
GI50 (T-47D breast): 1.18 µM
TGI (T-47D breast): 3.46 µM
GI50 (TK-10 renal): 2.57 µM
TGI (TK-10 renal): 4.13 µM
GI50 (U251 CNS): 1.76 µM
TGI (U251 CNS): 3.51 µM
GI50 (UACC-257 melanoma): 1.69 µM
TGI (UACC-257 melanoma): 3.18 µM
GI50 (UACC-62 melanoma): 1.83 µM
TGI (UACC-62 melanoma): 3.77 µM
GI50 (UO-31 renal): 1.23 µM
TGI (UO-31 renal): 2.6 µM
